In patent US12138341B1 (Technical Institute of Physics and Chemistry, CAS, priority 2023, dated 2024):

Test: In vivo pharmacokinetics experiment of CBD microneedle in a rat
Design: species or system SD rat
Conditions: gavage group (oral administration), FIG. 7

SMILES: C=C(C)[C@@H]1CCC(C)=C[C@H]1c1c(O)cc(CCCCC)cc1O [CBD, cannabidiol]
- time drug concentration in plasma is maintained: 2 days
